Source: patent US8617818B2, “Compositions and methods for diagnosis and prognosis of cancer and progression, and for screening anti-cancer agents” (Tufts Medical Center, priority 2009, dated 2013)

Test system: MCF10A cells
Test: Transwell migration assay
Assay type: cell-based, human
Details: TGFβ 20 ng/mL
Description: Transwell migration assays were performed according to Irie et al., 2005 J. Cell Biol. 171: 1023. MCF10A cells were transfected with a negative control siRNA designed to have no sequence similarity to a human transcript sequence (#AM4611) or siRNAs for Akt1 (#S660) or Akt2 (#S1216), or siRNAs for both Akt 1 and Akt2 (50 nM). Twenty four hours after transfection, cells were cultured overnight in assay medium (MCF10A growth medium containing 2% serum±TGFβ (20 ng/mL)). Sixteen hours later, cells were trypsinized and 10^5 cells were added to the top chambers of
24-well transwell plates (8 μm pore size; BD Bioscience, Bedford, Mass.). The bottom chambers were filled with assay medium. […] The significance of variability between a given group and its corresponding control was determined with the unpaired t test.
The mRNAs encoding Akt1 and Akt2, which are present in similar abundance in untransfected MCF10A cells (FIG. 10), were respectively knocked down by transfection with small interfering RNA (siRNA) directed against Akt1 or Akt2. […] After transfection with these siRNAs, the cells were analyzed for the abundance of Zeb1, Zeb2, and E-cadherin before and 24 hours after treatment with TGFβ. […] Parallel cultures of similarly treated cells were therefore used to measured cell migration by means of a Transwell cell migration assay.

Substance: TGFβ
- enhancement of cell migration (Akt1 siRNA-transfected MCF10A cells): 22 times
- enhancement of cell migration (untransfected MCF10A cells): 7.7 times
